Legend:
rNTS2 receptor [1] = molecular target: T1, rNTS2 receptor (Rattus norvegicus, UniProt Q63384); experiment: Competitive [125I]NT whole-cell binding assay, CHO-k1 cells overexpressing rNTS2
T1 sequence (Q63384 1-416): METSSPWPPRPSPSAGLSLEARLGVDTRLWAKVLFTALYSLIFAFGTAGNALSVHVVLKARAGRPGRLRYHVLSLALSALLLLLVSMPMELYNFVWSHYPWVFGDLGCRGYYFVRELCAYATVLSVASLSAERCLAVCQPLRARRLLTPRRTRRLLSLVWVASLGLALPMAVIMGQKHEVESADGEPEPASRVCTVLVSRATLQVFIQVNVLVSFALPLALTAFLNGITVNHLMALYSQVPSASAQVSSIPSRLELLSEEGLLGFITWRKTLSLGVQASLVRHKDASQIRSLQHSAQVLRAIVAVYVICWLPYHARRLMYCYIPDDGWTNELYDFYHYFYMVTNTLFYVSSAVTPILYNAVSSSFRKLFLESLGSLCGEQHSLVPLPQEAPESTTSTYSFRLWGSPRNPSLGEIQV

rNTS1 receptor = rNTS1 receptor (Rattus norvegicus, UniProt P20789); experiment: Calcium mobilization assay for NTS1 receptor; type: cell-based; details: for activity at NTS1: NTS1 FLIPR calcium assay
rNTS2 receptor [2] = molecular target: T1, rNTS2 receptor; experiment: Calcium mobilization assay for NTS2 receptor; type: cell-based; details: calcium mobilization relative to 5b

Sequence of rNTS1 receptor (P20789 whole entry): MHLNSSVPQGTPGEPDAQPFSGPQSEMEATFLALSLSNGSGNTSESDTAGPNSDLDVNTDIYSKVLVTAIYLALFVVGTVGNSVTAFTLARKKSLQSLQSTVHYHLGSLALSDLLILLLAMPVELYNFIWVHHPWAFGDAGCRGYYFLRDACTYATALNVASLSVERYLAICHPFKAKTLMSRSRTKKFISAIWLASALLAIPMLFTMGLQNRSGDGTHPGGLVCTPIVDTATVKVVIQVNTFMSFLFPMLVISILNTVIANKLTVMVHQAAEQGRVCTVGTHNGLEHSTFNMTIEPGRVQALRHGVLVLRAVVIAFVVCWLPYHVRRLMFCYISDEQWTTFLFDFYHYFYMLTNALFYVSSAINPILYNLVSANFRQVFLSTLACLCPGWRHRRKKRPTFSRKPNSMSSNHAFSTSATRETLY

| SMILES | Ki (rNTS2 receptor [1]) [nM] | activity at NTS1 (rNTS1 receptor) | NTS2 Emax (FLIPR assay) (rNTS2 receptor [2]) [% 5b] | Kb (rNTS1 receptor) [nM] |
| --- | --- | --- | --- | --- |
| COc1cccc(OC)c1-c1cc(C(=O)NC2C3CC4CC(C3)CC2C4)nn1-c1ccnc2cc(Cl)ccc12 (stereo not drawn) [Compound 13, 1-(7-Chloroquinolin-4-yl)-5-(2,6-dimethoxyphenyl)-N-tricyclo[3.3.1.13,7]dec-2-yl-1H-pyrazole-3-carboxamide] | > 11000 | inactive | – | – |
| C[C@@H]1CN([C@H]2CC[C@](C#N)(c3ccc(F)cc3)CC2)CC[C@]1(C(=O)O)c1ccccc1 [Compound 6, levocabastine] | – | no activity at NTS1 | 16 | – |
| COc1cccc(OC)c1-c1cc(C(=O)NC2(C(=O)O)C3CC4CC(C3)CC2C4)nn1-c1ccnc2cc(Cl)ccc12 (stereo not drawn) [Compound 5a] | – | – | 100 | 4.7 ± 0.8 |
| COc1cccc(OC)c1-c1cc(C(=O)NC2(C(=O)O)C3CC4CC(C3)CC2C4)nn1-c1ccc(C(=O)N(C)CCCN(C)C)cc1C(C)C (stereo not drawn) [Compound 5b] | – | – | – | 1.5 ± 0.6 |
| COc1ccccc1-c1cc(C(=O)NC2(C(=O)O)CCCCC2)nn1-c1ccc(F)cc1 [Compound 7b, 1-({[1-(4-Fluorophenyl)-5-(2-methoxyphenyl)-1H-pyrazol-3-yl]carbonyl}amino)cyclohexanecarboxylic Acid] | – | neither calcium nor binding activity at NTS1 | 7±2 | – |
